Patent US8268859B2, “Glucocorticoid mimetics, methods of making them, pharmaceutical compositions and uses thereof” (Boehringer Ingelheim International GmbH, priority 2008, dated 2012)
pIC50: −log10 of the molar value. Like-named read-outs stand apart in the source and are kept apart here.

Columns and labels:
[1] = target: T1, human glucocorticoid receptor (GR) complex (Homo sapiens, UniProt P04150); assay: Glucocorticoid receptor fluorescence polarization competitive binding assay;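 note: GR complex expressed in an insect system, wells lacking compound give full signal, excess unlabeled dexamethasone defines the blank, IC50 from logistic curve fit of polarization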
T1 construct: made in house; host or cells: insect expression system (baculovirus lysate)
T1 sequence (P04150 1-777): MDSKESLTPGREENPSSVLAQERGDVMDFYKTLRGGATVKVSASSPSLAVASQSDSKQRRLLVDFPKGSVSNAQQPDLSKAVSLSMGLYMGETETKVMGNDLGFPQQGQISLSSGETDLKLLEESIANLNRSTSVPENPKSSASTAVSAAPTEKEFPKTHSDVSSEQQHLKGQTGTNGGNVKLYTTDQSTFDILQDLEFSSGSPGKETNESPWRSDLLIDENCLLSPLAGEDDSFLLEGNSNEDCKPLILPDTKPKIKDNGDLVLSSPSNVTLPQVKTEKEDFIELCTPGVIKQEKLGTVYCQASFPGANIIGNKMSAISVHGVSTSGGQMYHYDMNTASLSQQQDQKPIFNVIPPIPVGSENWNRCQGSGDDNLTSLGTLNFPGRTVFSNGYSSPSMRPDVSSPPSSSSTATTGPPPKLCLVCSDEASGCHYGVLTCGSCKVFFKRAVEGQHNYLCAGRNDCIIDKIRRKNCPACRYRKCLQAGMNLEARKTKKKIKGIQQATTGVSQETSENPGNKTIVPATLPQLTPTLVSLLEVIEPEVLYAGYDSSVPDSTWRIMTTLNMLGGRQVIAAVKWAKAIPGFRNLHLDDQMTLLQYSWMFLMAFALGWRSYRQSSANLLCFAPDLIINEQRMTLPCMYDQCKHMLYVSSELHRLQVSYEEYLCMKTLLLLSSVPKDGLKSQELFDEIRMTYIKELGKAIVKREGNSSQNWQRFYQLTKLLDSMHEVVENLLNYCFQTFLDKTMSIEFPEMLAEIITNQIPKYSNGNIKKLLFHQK

[2] = target: human recombinant CYP3A4 (Homo sapiens, UniProt P08684); assay: Cytochrome P450 inhibition assay (substrate 7-benzyloxy-4-(trifluoromethyl)coumarin); assay type: in vitro ADME; details: Table 1; read-out: CYP3A4 IC50;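 note: compounds preincubated at least 10 min at 37 °C before adding enzyme plus substrate, reaction run 30 min at 37 °C, ketoconazole standard curve on every plate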
human recombinant CYP3A4, sequence (P08684 whole entry): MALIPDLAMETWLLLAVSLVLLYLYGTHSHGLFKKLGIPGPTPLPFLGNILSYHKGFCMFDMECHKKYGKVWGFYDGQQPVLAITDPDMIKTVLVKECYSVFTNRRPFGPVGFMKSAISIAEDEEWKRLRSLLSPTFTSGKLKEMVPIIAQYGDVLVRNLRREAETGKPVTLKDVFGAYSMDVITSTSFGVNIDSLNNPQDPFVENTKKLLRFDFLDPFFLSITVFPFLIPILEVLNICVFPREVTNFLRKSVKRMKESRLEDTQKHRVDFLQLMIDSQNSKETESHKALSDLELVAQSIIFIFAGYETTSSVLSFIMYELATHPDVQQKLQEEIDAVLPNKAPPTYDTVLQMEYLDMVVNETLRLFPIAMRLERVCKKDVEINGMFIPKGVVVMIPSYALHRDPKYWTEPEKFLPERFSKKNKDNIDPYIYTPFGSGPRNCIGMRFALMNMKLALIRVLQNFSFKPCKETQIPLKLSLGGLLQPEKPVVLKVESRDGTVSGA

[3] = Table 1, competition with TAMRA-labeled dexamethasone, read-out: GR IC50

| SMILES | pIC50 [1] | pIC50 [2] | pIC50 [1, 3] |
| --- | --- | --- | --- |
| CCCS(=O)(=O)c1cc2cc(CC(O)(CC(C)(C)c3ccccc3S(C)(=O)=O)C(F)(F)F)[nH]c2cn1 (stereo not shown) [1,1,1-Trifluoro-4-(2-methanesulfonylphenyl)-4-methyl-2-[5-(propane-1-sulfonyl)-1H-pyrrolo[2,3-c]pyridin-2-ylmethyl]pentan-2-ol] | 7.62 | 5.80 | – |
| CC(C)S(=O)(=O)c1cc2cc(CC(O)(CC(C)(C)c3ccccc3S(C)(=O)=O)C(F)(F)F)[nH]c2cn1 (stereo not shown) [1,1,1-Trifluoro-4-(2-methanesulfonylphenyl)-4-methyl-2-[5-(propane-2-sulfonyl)-1H-pyrrolo[2,3-c]pyridin-2-ylmethyl]pentan-2-ol] | – | 4.66 | 7.01 |
| CC(C)(CC(O)(Cc1cc2nc(S(C)(=O)=O)ccc2[nH]1)C(F)(F)F)c1cccc(F)c1S(C)(=O)=O (stereo not shown) [1,1,1-Trifluoro-4-(3-fluoro-2-methanesulfonylphenyl)-2-(5-meethanesulfonyl-1H-pyrrolo[3,2-b]pyridin-2-ylmethyl)-4-methylpentan-2-ol] | – | 4.92 | 7.19 |
| CC(C)(CC(O)(Cc1cc2cc(S(C)(=O)=O)ncc2[nH]1)C(F)(F)F)c1cccc(F)c1S(C)(=O)=O (stereo not shown) [1,1,1-Trifluoro-4-(3-fluoro-2-methanesulfonylphenyl)-2-(5-methanesulfonyl-1H-pyrrolo[2,3-c]pyridin-2-ylmethyl)-4-methylpentan-2-ol] | – | < 4.52 | 7.21 |
| CC(C)S(=O)(=O)c1cc2cc(CC(O)(CC(C)(C)c3cccc(F)c3S(C)(=O)=O)C(F)(F)F)[nH]c2cn1 (stereo not shown) [1,1,1-Trifluoro-4-(3-fluoro-2-methanesulfonylphenyl)-4-methyl-2-[5-(propane-2-sulfonyl)-1H-pyrrolo[2,3-c]pyridin-2-ylmethyl]pentan-2-ol] | – | < 4.52 | 6.68 |
| CC(C)S(=O)(=O)c1cc2cc(CC(O)(CC(C)(C)c3ccc(F)cc3S(C)(=O)=O)C(F)(F)F)[nH]c2cn1 (stereo not shown) [1,1,1-Trifluoro-4-(4-fluoro-2-methanesulfonylphenyl)-4-methyl-2-[5-(propane-2-sulfonyl)-1H-pyrrolo[2,3-c]pyridin-2-ylmethyl]pentan-2-ol] | – | 4.72 | 7.28 |
| CC(C)(CC(O)(Cc1cc2cc(S(C)(=O)=O)ncc2[nH]1)C(F)(F)F)c1cccc2c1S(=O)(=O)C=C2 (stereo not shown) [4-(1,1-Dioxo-1H-1λ^6-benzo[b]thiophen-7-yl)-1,1,1-trifluoro-2-(5-methanesulfonyl-1H-pyrrolo[2,3-c]pyridin-2-ylmethyl)-4-methylpentan-2-ol] | – | 5.13 | 7.05 |
| CCS(=O)(=O)c1cc2cc(CC(O)(CC(C)(C)c3cccc4c3S(=O)(=O)C=C4)C(F)(F)F)[nH]c2cn1 (stereo not shown) [4-(1,1-Dioxo-1H-1λ^6-benzo[b]thiophen-7-yl)-2-(5-ethanesulfonyl-1H-pyrrolo[2,3-c]pyridin-2-ylmethyl)-1,1,1-trifluoro-4-methylpentan-2-ol] | – | 5.39 | 7.24 |
| CC(C)(CC(O)(Cc1cc2cc(S(C)(=O)=O)ncc2[nH]1)C(F)(F)F)c1ccccc1Br (stereo not shown) [4-(2-Bromophenyl)-1,1,1-trifluoro-2-(5-methanesulfonyl-1H-pyrrolo[2,3-c]pyridin-2-ylmethyl)-4-methylpentan-2-ol] | – | 4.64 | 8.15 |
| CC(C)(CC(O)(Cc1cc2nc(S(C)(=O)=O)ccc2[nH]1)C(F)(F)F)c1cc(Cl)ccc1S(C)(=O)=O (stereo not shown) [4-(5-Chloro-2-methanesulfonylphenyl)-1,1,1-trifluoro-2-(5-methanesulfonyl-1H-pyrrolo[3,2-b]pyridin-2-ylmethyl)-4-methylpentan-2-ol] | 8.10 | 5.39 | – |
| CCCS(=O)(=O)c1cc2cc(CC(O)(CC(C)(C)c3cc(Cl)ccc3S(C)(=O)=O)C(F)(F)F)[nH]c2cn1 (stereo not shown) [4-(5-Chloro-2-methanesulfonylphenyl)-1,1,1-trifluoro-4-methyl-2-[5-(propane-1-sulfonyl)-1H-pyrrolo[2,3-c]pyridin-2-ylmethyl]pentan-2-ol] | – | 6.05 | 7.85 |
| CC(C)S(=O)(=O)c1cc2cc(CC(O)(CC(C)(C)c3cc(Cl)ccc3S(C)(=O)=O)C(F)(F)F)[nH]c2cn1 (stereo not shown) [4-(5-Chloro-2-methanesulfonylphenyl)-1,1,1-trifluoro-4-methyl-2-[5-(propane-2-sulfonyl)-1H-pyrrolo[2,3-c]pyridin-2-ylmethyl]pentan-2-ol] | – | 5.22 | 7.77 |
| CC(C)(CC(O)(Cc1cc2cc(S(C)(=O)=O)ncc2[nH]1)C(F)(F)F)c1cccc2ccsc12 (stereo not shown) [4-Benzo[b]thiophen-7-yl-1,1,1-trifluoro-2-(5-methanesulfonyl-1H-pyrrolo[2,3-c]pyridin-2-ylmethyl)-4-methylpentan-2-ol] | 8.00 | 5.57 | – |
| CC(C)(CC(O)(Cc1cc2cc(S(C)(=O)=O)ncc2[nH]1)C(F)(F)F)c1cc(Br)ccc1O (stereo not shown) [4-Bromo-2-[4,4,4-trifluoro-3-hydroxy-3-(5-methanesulfonyl-1H-pyrrolo[2,3-c]pyridin-2-ylmethyl)-1,1-dimethylbutyl]phenol] | – | 5.25 | 8.15 |
| CC(C)(C[C@@](O)(Cc1cc2nc(S(C)(=O)=O)ncc2[nH]1)C(F)(F)F)c1ccc(F)cc1C(N)=O [5-Fluoro-2-[(R)-4,4,4-trifluoro-3-hydroxy-3-(2-methanesulfonyl-5H-pyrrolo[3,2-d]pyrimidin-6-ylmethyl)-1,1-dimethylbutyl]benzamide] | – | 4.96 | 6.68 |
| CC(C)(C[C@@](O)(Cc1cc2nc(S(C)(=O)=O)ccc2[nH]1)C(F)(F)F)c1ccc(F)cc1C(N)=O [5-Fluoro-2-[(R)-4,4,4-trifluoro-3-hydroxy-3-(5-methanesulfonyl-1H-pyrrolo[3,2-b]pyridin-2-ylmethyl)-1,1-dimethyl-butyl]benzamide] | 7.57 | 5.15 | – |
| CC(C)(C[C@@](O)(Cc1cc2cc(S(C)(=O)=O)ncc2[nH]1)C(F)(F)F)c1cccc(Br)c1 [(R)-4-(3-Bromophenyl)-1,1,1-trifluoro-2-(5-methanesulfonyl-1H-pyrrolo[2,3-c]pyridin-2-ylmethyl)-4-methylpentan-2-ol] | 8.05 | 4.70 | – |
| CC(C)(C[C@@](O)(Cc1cc2nc(S(C)(=O)=O)ccc2[nH]1)C(F)(F)F)c1cccc(Br)c1 [(R)-4-(3-Bromophenyl)-1,1,1-trifluoro-2-(5-methanesulfonyl-1H-pyrrolo[3,2-b]pyridin-2-ylmethyl)-4-methylpentan-2-ol] | – | 4.82 | 7.85 |
| CCS(=O)(=O)c1cc2cc(C[C@](O)(CC(C)(C)c3cc(Cl)cc4c3OCC4)C(F)(F)F)[nH]c2cn1 [(R)-4-(5-Chloro-2,3-dihydrobenzofuran-7-yl)-2-(5-ethanesulfonyl-1H-pyrrolo[2,3-c]pyridin-2-ylmethyl)-1,1,1-trifluoro-4-methylpentan-2-ol] | – | 5.74 | 8.15 |
| CC(C)(C[C@@](O)(Cc1cc2cc(S(C)(=O)=O)ncc2[nH]1)C(F)(F)F)c1cc(Cl)cc2c1OCC2 [drawing 3, (R)-4-(5-Chloro-2,3-dihydrobenzofuran-7-yl)-1,1,1-trifluoro-2-(5-methanesulfonyl-1H-pyrrolo[2,3-c]pyridin-2-ylmethyl)-4-methylpentan-2-ol] | – | 5.19 | 8.22 |
